Source: patent US20210113522A1, “COUMARIN DERIVATIVE AS ANTI-ASTHMATIC AGENT, PHARMACEUTICAL COMPOSITION THEREOF, ITS PREPARATION AND USE” (I-NOVA MEDICINSKA ISTRAZIVANJA D.O.O., priority 2017, published 2021)

Tests used:
CCL11 (eotaxin) = experiment: OVA model: CCL11 (eotaxin) immunohistochemistry of lung sections; type: in vivo, Balb/c mice; settings: OVA-challenged mice; 1 2 mg/kg, beclomethasone 1 mg/kg
Protocol: (§1) • (1) Wash Buffer: T-PBS (0.1M, pH 7.4, 0.05% Tween 20); • (2) Blocking/Incubation Buffer: 1% bovine serum albumin, 0.1% Cold Fish Skin Gelatin, 0.5% Triton® X-100, 0.1 M PBS (pH 7.4); • (3) Peroxidase Blocking Solution (3% H2O2 in water); • (4) EDTA Antigen Retrieval Buffer (1 mM EDTA, 0.05% Tween 20, pH 8.0); • (5) Primary antibodies: • Rabbit anti-mouse IL-5 (Cat. #ABIN446956; Antibodies-Online GmbH, Schloss-Rahe-Str. 1552072 Aachen, Germany); • Rat anti-mouse CCL11 (Cat. #MAB420; R&D Systems, Inc., 614 McKinley Place Nebr., Minneapolis, Minn. 55413); • (6) Secondary antibodies: • Goat anti-rabbit IgG (H+L)-HRP (cat. #31466; Thermo Fisher Scientific, 168 Third Avenue Waltham, Mass. USA 02451); • Goat anti-rat IgG (H+L)—HRP (cat. #62-9520; Thermo Fisher Scientific, 168 Third Avenue Waltham, Mass. USA 02451); • (7) Pierce DAB Substrate Kit (DAB (10×), 25 mL; Stable Peroxide Buffer, 250 mL) (Catalog #34002; Thermo Fisher Scientific, 168 Third Avenue Waltham, Mass. USA 02451); • (8) Hematoxylin Counterstain (Cat #GHS216; Sigma-Aldrich Chemie GmbH, Eschenstrasse 5, 82024 Taufkirchen, Germany); • (9) Vitro-Clud 500 Mounting Medium (Catalog #A20500; Deltalab; Plz. Verneda 1, Pol Ind La Llana 08191 Rubí Barcelona Spain). […]

IL-5 = experiment: OVA model: IL-5 immunohistochemistry of lung sections; type: in vivo, Balb/c mice; settings: OVA-sensitised mice; both compound 1 groups 2 mg/kg, beclomethasone 1 mg/kg
Protocol: To investigate the treatment effect of compound 1, immunohistology from serial lung sections was performed 2 days after i.n. challenge in experimental mice that were treated with the compound 1 or beclomethasone as standard antiinflammatory and anti-asthmatic API.
as §1, with “Mass.” for “Mass. USA 02451); • (8) Hematoxylin Counterstain (Cat #GHS216; Sigma-Aldrich Chemie GmbH, Eschenstrasse 5, 82024 Taufkirchen, Germany); • (9) Vitro-Clud 500 Mounting Medium (Catalog #A20500; Deltalab; Plz. Verneda 1, Pol Ind La Llana 08191 Rubí Barcelona Spain).”

SMILES	CCL11 (eotaxin) levels in lung sections (CCL11 (eotaxin))	IL-5 expression in lung sections (IL-5)
O=c1oc2cc(O)cc(O)c2c(O)c1-c1coc2c1c(=O)oc1cc(O)cc(O)c12 [Compound 1, 7,9-dihydroxy-3-(4,5,7-trihydroxy-2-oxo-2H-chromene-3-yl)-4H-furo[3,2-c]chromen-4-one]	reduced to background	no IL-5 expression
C[C@H]1C[C@H]2[C@@H]3CCC4=CC(=O)C=C[C@]4(C)[C@@]3(Cl)[C@@H](O)C[C@]2(C)[C@@]1(O)C(=O)CO [beclomethasone, reference compound]	reduced to background	moderate result
